In PubChem BioAssay (NCI):
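Assay format: 96-well plates, 48-hour exposure. TGI is the concentration that stops growth completely.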

Tests used:
Test in all cases: NCI anticancer screen, dose series, 48 h
[1] = system: CAKI-1 renal
[2] = system: SF-295 CNS
[3] = system: UACC-62 melanoma
[4] = system: MALME-3M melanoma
[5] = system: SF-539 CNS
[6] = system: DU-145 prostate
[7] = system: T-47D breast
[8] = system: ACHN renal
[9] = system: TK-10 renal
[10] = system: COLO 205 colon
[11] = system: MDA-MB-231 breast
[12] = system: OVCAR-5 ovarian
[13] = system: OVCAR-3 ovarian
[14] = system: SNB-75 CNS
[15] = system: U251 CNS
[16] = system: HT29 colon
[17] = system: HCT-116 colon
[18] = system: HL-60(TB) leukemia
[19] = system: KM12 colon
[20] = system: OVCAR-4 ovarian
[21] = system: HOP-62 NSCLC
[22] = system: NCI-H23 lung
[23] = system: M14 melanoma
[24] = system: HS 578T breast
[25] = system: SNB-19 CNS
[26] = system: SN12C renal
[27] = system: MCF7 breast
[28] = system: RXF 393 renal
[29] = system: PC-3 prostate
[30] = system: SW-620 colon
[31] = system: A498 renal
[32] = system: K-562 leukemia
[33] = system: 786-0 renal
[34] = system: UACC-257 melanoma
[35] = system: BT-549 breast
[36] = system: UO-31 renal
[37] = system: SF-268 CNS
[38] = system: HCT-15 colon
[39] = system: A549 NSCLC
[40] = system: SK-MEL-5 melanoma
[41] = system: HOP-92 NSCLC
[42] = system: RPMI-8226 leukemia
[43] = system: SK-MEL-28 melanoma
[44] = system: IGROV1 ovarian
[45] = system: NCI-H460 lung
[46] = system: NCI/ADR-RES ovarian
[47] = system: LOX IMVI melanoma
[48] = system: SR leukemia
[49] = system: MDA-N
[50] = system: MDA-MB-435
[51] = system: SK-OV-3 ovarian
[52] = system: CCRF-CEM leukemia
[53] = system: SK-MEL-2 melanoma
[54] = system: MOLT-4 leukemia
[55] = system: OVCAR-8 ovarian
[56] = system: NCI-H522 lung
[57] = system: EKVX NSCLC
[58] = system: NCI-H226 lung

`COc1ccccc1C[C@@H]1OC2(C=CC(=O)CC2SC(=O)c2ccccc2)O[C@H]1Cc1ccccc1OC` (some centres not stated) showed a TGI [1] of 5.24 µM, a TGI [2] of 4.14 µM and a TGI [3] of 7 µM. For the same compound, the TGI [4] was 4.26 µM, the TGI [5] was 3.08 µM and the TGI [6] was 18 µM. The TGI [7] was 5.64 µM, the TGI [8] was 3.5 µM and the TGI [9] was 5.07 µM. For the same compound, the TGI [10] was 3.16 µM, the TGI [11] was 7.23 µM and the TGI [12] was 2630 nM. The TGI [13] was 4.93 µM, the TGI [14] was 3.28 µM and the TGI [15] was 2810 nM. It also gave a TGI [16] of 3.14 µM, a TGI [17] of 651 nM and a TGI [18] of 5.64 µM. For the same compound, the TGI [19] was 8.4 µM, the TGI [20] was 3.69 µM and the TGI [21] was 3.03 µM. It also gave a TGI [22] of 5.43 µM, a TGI [23] of 3.26 µM and a TGI [24] of 4.73 µM. It also gave a TGI [25] of 4.94 µM, a TGI [26] of 6.49 µM and a TGI [27] of 2360 nM. It also gave a TGI [28] of 501 nM, a TGI [29] of 4.71 µM and a TGI [30] of 1350 nM. It also gave a TGI [31] of 5.67 µM, a TGI [32] of 27.3 µM and a TGI [33] of 973 nM. It also gave a TGI [34] of 3.02 µM, a TGI [35] of 2740 nM and a TGI [36] of 2540 nM. For the same compound, the TGI [37] was 2440 nM, the TGI [38] was 4.75 µM and the TGI [39] was 8.67 µM. For the same compound, the TGI [40] was 3.1 µM, the TGI [41] was 3.31 µM and the TGI [42] was 943 nM. The TGI [43] was 3.22 µM, the TGI [44] was 2740 nM and the TGI [45] was 7.87 µM. The TGI [46] was 4.55 µM, the TGI [47] was 1900 nM and the TGI [48] was 2810 nM. For the same compound, the TGI [49] was 6.16 µM, the TGI [50] was 4.61 µM and the TGI [51] was 5.04 µM. For the same compound, the TGI [52] was 1030 nM, the TGI [53] was 3.31 µM and the TGI [54] was 19.5 µM.

For `O=C1c2ccccc2-c2c1c1ccccc1c(=O)n2Cc1ccccc1`, the TGI [1] was over 100 µM, the TGI [2] was over 100 µM and the TGI [3] was over 100 µM. It also gave a TGI [4] of over 100 µM, a TGI [5] of over 100 µM and a TGI [6] of over 100 µM. For the same compound, the TGI [7] was over 100 µM, the TGI [55] was over 100 µM and the TGI [56] was over 100 µM. The TGI [9] was over 100 µM, the TGI [10] was over 100 µM and the TGI [11] was over 100 µM. For the same compound, the TGI [12] was over 100000 nM, the TGI [13] was over 100 µM and the TGI [14] was over 100 µM. It also gave a TGI [15] of over 100000 nM, a TGI [16] of over 100 µM and a TGI [17] of over 100000 nM. For the same compound, the TGI [18] was over 100 µM, the TGI [19] was over 100 µM and the TGI [20] was 42.3 µM. It also gave a TGI [21] of over 100 µM, a TGI [22] of over 100 µM and a TGI [23] of over 100 µM. It also gave a TGI [24] of over 100 µM, a TGI [26] of over 100 µM and a TGI [27] of over 100000 nM. For the same compound, the TGI [29] was over 100 µM, the TGI [57] was over 100 µM and the TGI [30] was over 100000 nM. It also gave a TGI [31] of over 100 µM, a TGI [33] of over 100000 nM and a TGI [34] of over 100 µM. It also gave a TGI [35] of over 100000 nM, a TGI [36] of over 100000 nM and a TGI [37] of over 100000 nM. It also gave a TGI [38] of over 100 µM, a TGI [39] of over 100 µM and a TGI [40] of over 100 µM. It also gave a TGI [41] of over 100 µM, a TGI [42] of over 100000 nM and a TGI [43] of over 100 µM. It also gave a TGI [44] of over 100000 nM, a TGI [46] of over 100 µM and a TGI [47] of over 100000 nM. The TGI [48] was over 100000 nM, the TGI [49] was over 100 µM and the TGI [50] was over 100 µM. For the same compound, the TGI [51] was over 100 µM, the TGI [58] was over 100 µM and the TGI [52] was over 100000 nM. For the same compound, the TGI [53] was over 100 µM and the TGI [54] was over 100 µM.
